Measured values from US20080206347A1, “Pharmaceutical Formulations Comprising Active Pharmaceutical Principles Adsorbed on Titanium Dioxide Nanoparticles” (FLAMMA S.P.A., priority 2005, published 2008).
Several values for one entry are separate records, joined by “and”; a condition that tells them apart may be missing. Equal values may be shown once. Read-outs that look alike come from different tables or passages of the source.

Columns and labels:
[1] = Experimental: (§1) A NMR-based method was developed since alendronate lacks the chromophoric group of risedronate. The NMR experiments were carried out in H2O instead of D2O (or other deuterated solvents) simply using the aqueous solutions obtained after removal of TiO2 by centrifugation without concentration or further treatment. Only a small amount of C6D6 in a sealed capillary tube (reusable) inserted into the NMR tube was required to achieve the field lock. […] To determine the concentration of sodium alendronate in aqueous solutions, a known amount of an internal standard was added before each NMR measurements, namely 1,3,5-triaza-7-phospha-adamantane, a water-soluble phosphine.
Sodium Alendronate trihydrated was adsorbed on TiO2 as described above. After centrifugation, the recovered solid was dried at 40° C./0.1 mbar for 6 h. A suspension of this solid in 50 ml of aqueous HCl (pH 1.0) or NaOH (pH 9.0) was vigorously stirred at the stated temperature in a nitrogen atmosphere. The pH of the basic solution was constantly monitored and maintained at the initial level by addition of 0.05 M NaOH.

[2] = Adsorption of drug on TiO2 nanoparticles; assay type: physicochemical
Experimental: To a stirred solution of Sodium Risedronate (625 mg) in deionized water (100 ml) increasing amounts of nanocrystalline TiO2 were added (ca. 20 nm nanoparticle size). […] This limit probably corresponds to a total surface coverage of the nanoparticles.
190 mg of Sodium Risedronate were adsorbed at 25° C. on 3.00 g of TiO2 nanoparticles having an average diameter of 20-25 nm.
(§2) To an aqueous solution containing 625 mg of Sodium Risedronate in 100 ml of deionized water 3.00 g of TiO2 was added. The suspension was stirred for 72 h at room temperature and then centrifuged at 4000 rpm for 10 min. The solid was suspended twice in a pH 1 HCl solution, stirred for 20 min and centrifuged. The solid was finally dried at 40° C. under vacuum.
as §1
TiO2 (25 nm, 1.00 g) was added to a solution of Sodium Alendronate trihydrated (207 mg, 0.64 mmol) in H2O (50 ml) and the resulting suspension (pH 4.5) was vigorously stirred in the dark at 25° C. for 48 h, then centrifuged (4,000 rpm, 5 min). The cloudy supernatant was recovered, treated with solid NaCl (ca. 3 g), kept at room temperature for 2 h, and centrifuged (4,000 rpm, 5 min). To the resulting solution was added 1,3,5-triaza-7-phospha-adamantane and the concentration of residual sodium alendronate was estimated by ^31P-NMR as described above.

[3] = in vivo; cited from earlier work
[4] = Desorption of Sodium Risedronate from TiO2 in aqueous solution at different pH; assay type: physicochemical; conditions: for amount released, % of the initial concentration on TiO2: pH=8, 25° C.
Experimental: Desorption of Sodium Risedronate from TiO2 at 25° C. was studied in aqueous solution at different pH values.
The desorption as function of time of Sodium Risedronate from TiO2 was studied in aqueous solution at pH 9 and at 36° C.
as §2
Nine separate 30 mg portions of TiO2 adsorbed with Sodium Risedronate were suspended in 10 ml of pH 9 NaOH solutions and left stirring for different times in the range 1-120 min. During drug desorption the pH of the suspension was kept at the original value by small addition of NaOH solution. In all cases the concentration of desorbed drug was corrected for volume changes.

[5] = 250 mg of TiO2 carrying 16 mg of drug
[6] = 1.00 g TiO2 (25 nm), 24 h stirring, 25° C.

Compound | release to the intestine [1, 5] | Desorption ([1]; pH 1.0, 2 h stirring at 25° C.) | Desorption ([1]; pH 9.0, 30 min stirring at 25° C.) | Desorption ([1]; pH 9.0, 2 h stirring at 25° C.) | Desorption ([1]; pH 9.0, 6 h stirring at 37° C.) | amount adsorbed on TiO2 ([2]; 1.00 g TiO2 (25 nm), 207 mg in 50 ml H2O, 48 h stirring, 25° C.) | amount adsorbed on TiO2 [2, 6] | amount adsorbed, % of the initial amount [2, 6] | amount adsorbed, % of the initial amount ([2]; 1.00 g TiO2 (25 nm), 48 h stirring, 25° C.) | oral bioavailability [3] | amount of drug which can be adsorbed on the surface of the nanocrystalline substrate ([2]; 625 mg in 100 ml deionized water, increasing amounts of TiO2 ca. 20 nm, limit value) | amount adsorbed on TiO2 ([2]; on 3.00 g of TiO2 nanoparticles (20-25 nm), 25° C./room temperature, from 625 mg) | amount of drug released in the intestine [4, 5] | release in the gastroesophageal region [4, 5] | adsorbed drug desorbed ([4]; pH 9, 36° C., after 1 minute) | amount of drug released ([4]; pH 9, 36° C., in the next 60 min) | amount of drug released ([4]; pH 9, 36° C., longer times (up to 120 min), constant) | amount released, % of the initial concentration on TiO2 ([4]; after 30 min) | amount released, % of the initial concentration on TiO2 ([4]; after 2 hours)
NCCCC(O)(P(=O)(O)O)P(=O)(O)O [Sodium Alendronate] | 4 mg | not detected | 8% | 12% | 22% and 16-22% | 71 mg | 66 mg | 32% | 34% and 26-34% |  |  |  |  |  |  |  |  |  | 
O=P(O)(O)C(O)(Cc1cccnc1)P(=O)(O)O [Sodium Risedronate] |  |  |  |  |  |  |  |  |  | 0.63% | 31% | 190 mg | 6 to 9 mg | negligible release | 25% | 36% | 36% | ~35% | 35%
